Patent US5342841A, “Xanthine derivatives” (Kyowa Hakko Kogyo Co., Ltd., priority 1992, dated 1994)

Experiments:
[1] = system: glycerol-induced renal insufficiency in male Wistar rats; assay: Renal protecting activity (glycerol-induced renal insufficiency model), serum creatinine and urea nitrogen; format: in vivo, rat; settings: i.p.; for Creatinine content in serum, test compound administered / Urea nitrogen content in serum, test compound administered: 24 hours after glycerol; for increases in creatinine content and urea nitrogen content of the serum (in words): Compound 1 at 0.1 mg/kg (p<0.001)
Description: Renal insufficiency is the condition that the homeostasis of body fluid is unable to be maintained by disorder of renal function. It is known that subcutaneous or intramuscular administration of glycerol to rat induces acute renal insufficiency characterized by renal tubular disturbance [Can. J. Physiol.
(§1) Male Wistar rats were fisted from both food and water for 18 hours. A test compound or saline (control) was intraperitoneally administered to the rats. After 30 minutes, the rats were anesthesized with ether and the back skin was picked up and 0.8 ml/100 g of 50% glycerol was subcutaneously administered. Twenty four hours after the glycerol injection, the rats were anesthesized with ether and 5 ml of the blood was collected from the descending aorta. After being allowed to stand for 30 minutes or longer, the blood sample was centrifuged at 3000 rpm for 10 minutes to obtain the serum. Creatinine in the serum sample was determined using autoanalyzer (AU510, Olympus Optical Co., Ltd.) or clinical analysis kit of creatinine (Creatinine Test Wako; by Wako Pure Chemical Ind., Japan). Urea nitrogen in the serum was determined using autoanalyzer (AU510; made by Olympus Optical Co., Ltd.) or clinical analysis kit of urea nitrogen (Urea Nitrogen Test Wako; by Wako Pure Chemical Ind., Japan).
Test of the significance between the control group and the test compound-administered group was performed by the Student's t-test (n=8 to 10).

Male Wistar rats = assay: Diuretic activity (oral, saline-loaded rats); format: in vivo, rat; settings: for Increase in K+ excretion / Increase in Na+ excretion / Increase in volume of Urine / Na+/K+: 6 hours; for Increase in K+ excretion / Increase in Na+ excretion / Increase in volume of Urine: relative to control; for Na+/K+: relative to control (1.00)
Description: Male Wistar rats weighing 150 to 300 g were fasted for 18 hours. A test compound and saline (25 ml/kg) were orally administered to the test rats and only saline was administered to the control rats. Then, urine was collected for 6 hours. The test was carried out using 3 groups of animals per test compound, each group consisting of 3 animals. The volume of the urine was measured by using a measuring cylinder and electrolytes (Na^+ and K^+) in the urine were assayed with a flame photometer (Model […] manufactured by Hitachi Ltd.). The parameters in Table 3 are all expressed by relative value to the control.

[2] = system: left kidneys of male Wistar rats with glycerol-induced renal insufficiency; assay: Pathological examination of removed kidneys (glycerol-induced renal insufficiency model); format: in vivo, rat
Description: as §1
Further, the left kidneys were taken out from the animals of the test compound-treated groups and the control groups to prepare pathological samples.

Adenosine A1 receptor = target: T1, Adenosine A1 receptor (Cavia porcellus, UniProt P47745); assay: Adenosine A1 receptor binding (3H-CHA); settings: guinea pig cerebrum; for Ki: 3H-CHA, Cheng-Prusoff's equation; for inhibition at 100 µM: 10^-4 M test compound; for inhibition at 100 µM / inhibition at 10 µM: 3H-CHA 1.1 nM; for inhibition at 10 µM: 10^-5 M test compound
T1 construct: from tissue; host or cells: guinea pig cerebrum membranes
T1 sequence (P47745 1-326): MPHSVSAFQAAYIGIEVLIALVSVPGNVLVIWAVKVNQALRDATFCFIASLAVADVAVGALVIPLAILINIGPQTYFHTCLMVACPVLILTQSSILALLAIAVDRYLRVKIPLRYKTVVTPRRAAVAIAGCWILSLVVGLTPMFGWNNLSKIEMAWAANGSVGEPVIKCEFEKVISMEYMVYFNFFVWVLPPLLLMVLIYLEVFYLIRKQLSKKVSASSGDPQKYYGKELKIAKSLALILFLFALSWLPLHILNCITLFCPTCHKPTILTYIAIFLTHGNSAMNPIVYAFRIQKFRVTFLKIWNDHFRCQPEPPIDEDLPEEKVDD
Description: This test was conducted according to the method of Bruns et al. [Proc. Natl. Acad. Sci., 77, 5547 (1980)] with slight modification.
Cerebrum of a guinea pig was suspended in ice cooled 50 mM Tris hydroxymethyl aminomethane hydrochloride (Tris HCl) buffer (pH 7.7) by using Polytron homogenizer (manufactured by Kinematicas Co.). The suspension was centrifuged (50,000×g, 10 minutes), and the precipitate was suspended again in the same amount of 50 mM Tris HCl buffer. The suspension was centrifuged under the same conditions, and the precipitate obtained was suspended once again in 50 mM Tris HCl buffer to give a tissue concentration of 100 mg (wet weight)/ml. The tissue suspension was incubated at 37° C. for 30 minutes in the presence of 0.02 unit/mg tissue of adenosine deaminase (manufactured by Sigma Co.). The tissue suspension was then centrifuged (50,000×g, 10 minutes), and 50 mM Tris HCl buffer was added to the precipitate to adjust the concentration of tissue to 10 mg (wet weight)/ml.
To 1 ml of the thus prepared tissue suspension were added 50 μl of cyclohexyladenosine labeled with tritium [^3 H-CHA, 27 Ci/mmol, manufactured by New England Nuclear Co.] (final concentration: 1.1 nM) and 50 μl of a test compound. The mixture was allowed to stand at 25° C. for 90 minutes and then rapidly filtered by suction through a glass fiber filter (GF/C manufactured by Whatman Co.). The filter was immediately washed three times with 5 ml each of ice cold 50 mM Tris HCl buffer, and transferred to a vial, and a scintillator (EX-H by Wako Pure Chemical Industries, Ltd.) was added thereto. The radioactivity on the filter was determined with a scintillation counter (manufactured by Packard Instrument Co.).
The inhibition rate of the test compound against the binding of A1 receptor (^3 H-CHA binding) was calculated by the following equation: [formula]
2. "T" means the radioactivity of ^3 H-CHA bound in the absence of a test compound.
3. "N" means the radioactivity of ^3 H-CHA bound in the presence of 10 μM N^6 -(L-2-phenylisopropyl)adenosine (manufactured by Sigma Co.).
The inhibition constant (Ki value) shown in the table was calculated by the Cheng-Prusoff's equation.

Adenosine A2 receptor = target: T2, Adenosine A2 receptor (Rattus norvegicus, UniProt P30543); assay: Adenosine A2 receptor binding test (3H-NECA); settings: for Ki: 3H-NECA, CPA 50 nM, rat corpus striatum; for inhibition at 10 µM / inhibition at 100 µM: read-out: A2 Receptor Inhibition (%)
T2 construct: using rat corpus striatum to prepare the final precipitate; from tissue; host or cells: rat corpus striatum membranes
Description: The similar procedure as in 1) above was repeated using rat corpus striatum to prepare the final precipitate. The precipitate was suspended in 50 mM Tris HCl buffer containing 10 mM magnesium chloride and 0.02 unit/mg tissue of adenosine deaminase (manufactured by Sigma Co.) to give a tissue concentration of 5 mg (wet weight)/ml.
To 1 ml of the thus prepared tissue suspension were added 50 μl of a mixture of N-ethylcarboxamidoadenosine labeled with tritium [^3 H-NECA, 26 Ci/mmol, manufactured by Amersham Co.] […] (final concentration: 50 nM), and 50 μl of a test compound. The mixture was allowed to stand at 25° C. for 120 minutes and then treated in the same manner as in 1) above to determine the radioactivity.
The inhibition rate of the test compound against the binding of A2 receptor (^3 H-NECA binding) was calculated by the following equation: [formula]
2. "T" means the radioactivity of ^3 H-NECA bound in the absence of a test compound.
3. "N" means the radioactivity of ^3 H-NECA bound in the presence of 100 μM CPA.
The Ki value shown in the table was calculated by the following equation: [formula]
L: Concentration of ^3 H-NECA
Kd: Dissociation constant of ^3 H-NECA
Kc: Inhibition constant of CPA

[3] = 1 mg/kg, control 4.53 ± 0.19, *** P < 0.001, ** P < 0.01
[4] = 1 mg/kg, control 193.6 ± 6.4, *** P < 0.001, ** P < 0.01

T2 sequence (P30543 whole entry): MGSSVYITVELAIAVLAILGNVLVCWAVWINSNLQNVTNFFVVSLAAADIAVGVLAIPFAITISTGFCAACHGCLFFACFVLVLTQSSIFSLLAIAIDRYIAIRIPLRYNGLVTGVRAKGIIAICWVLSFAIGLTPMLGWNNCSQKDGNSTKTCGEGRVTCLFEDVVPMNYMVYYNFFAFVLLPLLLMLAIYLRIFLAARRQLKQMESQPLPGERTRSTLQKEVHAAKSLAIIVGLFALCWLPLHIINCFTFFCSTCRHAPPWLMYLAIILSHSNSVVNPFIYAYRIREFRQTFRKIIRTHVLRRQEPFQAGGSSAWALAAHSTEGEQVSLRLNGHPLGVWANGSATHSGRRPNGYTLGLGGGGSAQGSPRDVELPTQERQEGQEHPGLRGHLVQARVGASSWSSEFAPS

Cn1c(=O)c2[nH]cnc2n(C)c1=O [Aminophylline, reference compound]
Creatinine content in serum, test compound administered ([1]; 10 mg/kg, control 5.43 ± 0.11, no significance mark): 5.32 ± 0.19 mg/dL | Urea nitrogen content in serum, test compound administered ([1]; 10 mg/kg, control 182.5 ± 3.4, no significance mark): 174.0 ± 10.4 mg/dL | increases in creatinine content and urea nitrogen content of the serum (in words) ([1]; conclusion from Table 4): weak effect | Increase in K+ excretion (Male Wistar rats; 25 mg/kg): 17% | Increase in Na+ excretion (Male Wistar rats; 25 mg/kg): 89% | Increase in volume of Urine (Male Wistar rats; 25 mg/kg): 34% | Na+/K+ (Male Wistar rats; 25 mg/kg): 1.62

O=c1c2[nH]c(C34CC5CC(CC3C5)C4)nc2n(CC2CC2)c(=O)n1CC1CC1 [Compound 1, 1,3-Bis(cyclopropylmethyl)-8-(3-noradamantyl)xanthine]
state of kidneys (pathological examination) [2]: significantly improved | Creatinine content in serum, test compound administered ([1]; 0.1 mg/kg, control 4.53 ± 0.19, *** P < 0.001): 2.52 ± 0.24 mg/dL | Creatinine content in serum, test compound administered ([1]; 0.1 mg/kg, control 4.86 ± 0.12, *** P < 0.001): 1.97 ± 0.21 mg/dL | Urea nitrogen content in serum, test compound administered ([1]; 0.1 mg/kg, control 152.6 ± 4.1, *** P < 0.001): 61.3 ± 8.7 mg/dL | Urea nitrogen content in serum, test compound administered ([1]; 0.1 mg/kg, control 193.6 ± 6.4, *** P < 0.001): 109.4 ± 12.8 mg/dL | Creatinine content in serum, test compound administered [1, 3]: 2.23 ± 0.30 mg/dL | Urea nitrogen content in serum, test compound administered [1, 4]: 97.2 ± 13.6 mg/dL | increases in creatinine content and urea nitrogen content of the serum (in words) ([1]; conclusion from Table 4): significantly suppressed | Ki (Adenosine A1 receptor): 1.9 nM | inhibition at 100 µM (Adenosine A1 receptor): 101% | inhibition at 10 µM (Adenosine A1 receptor): 99% | Increase in K+ excretion (Male Wistar rats; 0.1 mg/kg): 9% | Increase in Na+ excretion (Male Wistar rats; 0.1 mg/kg): 146% | Increase in volume of Urine (Male Wistar rats; 0.1 mg/kg): 184% | Na+/K+ (Male Wistar rats; 0.1 mg/kg): 2.25 | Na+ diuretic action (Male Wistar rats; conclusion in words from Table 3): potent | Ki (Adenosine A2 receptor): > 10000 nM | inhibition at 10 µM (Adenosine A2 receptor): 49% | inhibition at 100 µM (Adenosine A2 receptor): 70%

O=c1c2[nH]c(C(C3CC3)C3CC3)nc2n(CC2CC2)c(=O)n1CC1CC1 [Compound 2, 1,3-Bis(cyclopropylmethyl)-8-dicyclopropylmethylxanthine]
Ki (Adenosine A1 receptor): 2.7 nM | inhibition at 100 µM (Adenosine A1 receptor): 101% | inhibition at 10 µM (Adenosine A1 receptor): 100% | Increase in K+ excretion (Male Wistar rats; 1.6 mg/kg): 4% | Increase in Na+ excretion (Male Wistar rats; 1.6 mg/kg): 49% | Increase in volume of Urine (Male Wistar rats; 1.6 mg/kg): 43% | Na+/K+ (Male Wistar rats; 1.6 mg/kg): 1.44 | Ki (Adenosine A2 receptor): 210 nM | inhibition at 10 µM (Adenosine A2 receptor): 93% | inhibition at 100 µM (Adenosine A2 receptor): 100%

O=c1c2[nH]c(C34CC5CC(CC3C5)C4)nc2n(C2CC2)c(=O)n1C1CC1 [Compound 3, 1,3-Dicyclopropyl-8-(3-noradamantyl)xanthine]
Ki (Adenosine A1 receptor): 38 nM | inhibition at 100 µM (Adenosine A1 receptor): 98% | inhibition at 10 µM (Adenosine A1 receptor): 99% | Increase in K+ excretion (Male Wistar rats; 0.1 mg/kg): 0% | Increase in Na+ excretion (Male Wistar rats; 0.1 mg/kg): 52% | Increase in volume of Urine (Male Wistar rats; 0.1 mg/kg): 48% | Na+/K+ (Male Wistar rats; 0.1 mg/kg): 1.52 | Increase in K+ excretion (Male Wistar rats; 1.6 mg/kg): 8% | Increase in Na+ excretion (Male Wistar rats; 1.6 mg/kg): 118% | Increase in volume of Urine (Male Wistar rats; 1.6 mg/kg): 93% | Na+/K+ (Male Wistar rats; 1.6 mg/kg): 2.02 | Ki (Adenosine A2 receptor): 1300 nM | inhibition at 10 µM (Adenosine A2 receptor): 78% | inhibition at 100 µM (Adenosine A2 receptor): 103%

O=c1c2[nH]c(C(C3CC3)C3CC3)nc2n(C2CC2)c(=O)n1C1CC1 [Compound 4, 1,3-Dicyclopropyl-8-dicyclopropylmethylxanthine]
Creatinine content in serum, test compound administered [1, 3]: 2.55 ± 0.43 mg/dL | Urea nitrogen content in serum, test compound administered [1, 4]: 108.5 ± 16.8 mg/dL | Ki (Adenosine A1 receptor): 42 nM | inhibition at 100 µM (Adenosine A1 receptor): 99% | inhibition at 10 µM (Adenosine A1 receptor): 99% | Increase in K+ excretion (Male Wistar rats; 1.6 mg/kg): 18% | Increase in Na+ excretion (Male Wistar rats; 1.6 mg/kg): 54% | Increase in volume of Urine (Male Wistar rats; 1.6 mg/kg): 54% | Na+/K+ (Male Wistar rats; 1.6 mg/kg): 1.31 | Ki (Adenosine A2 receptor): 2400 nM | inhibition at 10 µM (Adenosine A2 receptor): 104% | inhibition at 100 µM (Adenosine A2 receptor): 108%

NS(=O)(=O)c1cc(C(=O)O)c(NCc2ccco2)cc1Cl [Furosemide, reference compound]
Creatinine content in serum, test compound administered ([1]; 10 mg/kg, control 3.22 ± 0.35, no significance mark): 4.17 ± 0.41 mg/dL | Urea nitrogen content in serum, test compound administered ([1]; 10 mg/kg, control 110.7 ± 9.4, * P < 0.05): 150.3 ± 13.7 mg/dL | serum creatinine (in words) ([1]; conclusion from Table 4): tendency to increase the serum creatinine | Increase in volume of Urine (Male Wistar rats; 25 mg/kg): 75% | Na+/K+ (Male Wistar rats; 25 mg/kg): 1.07
